One experiment has as its target T1, m-calpain (Rattus norvegicus, UniProt Q07009).
T1 construct: m-calpain was purified from a brain of rat; from tissue; host or cells: rat brain
T1 sequence (Q07009 20-700 limits assumed): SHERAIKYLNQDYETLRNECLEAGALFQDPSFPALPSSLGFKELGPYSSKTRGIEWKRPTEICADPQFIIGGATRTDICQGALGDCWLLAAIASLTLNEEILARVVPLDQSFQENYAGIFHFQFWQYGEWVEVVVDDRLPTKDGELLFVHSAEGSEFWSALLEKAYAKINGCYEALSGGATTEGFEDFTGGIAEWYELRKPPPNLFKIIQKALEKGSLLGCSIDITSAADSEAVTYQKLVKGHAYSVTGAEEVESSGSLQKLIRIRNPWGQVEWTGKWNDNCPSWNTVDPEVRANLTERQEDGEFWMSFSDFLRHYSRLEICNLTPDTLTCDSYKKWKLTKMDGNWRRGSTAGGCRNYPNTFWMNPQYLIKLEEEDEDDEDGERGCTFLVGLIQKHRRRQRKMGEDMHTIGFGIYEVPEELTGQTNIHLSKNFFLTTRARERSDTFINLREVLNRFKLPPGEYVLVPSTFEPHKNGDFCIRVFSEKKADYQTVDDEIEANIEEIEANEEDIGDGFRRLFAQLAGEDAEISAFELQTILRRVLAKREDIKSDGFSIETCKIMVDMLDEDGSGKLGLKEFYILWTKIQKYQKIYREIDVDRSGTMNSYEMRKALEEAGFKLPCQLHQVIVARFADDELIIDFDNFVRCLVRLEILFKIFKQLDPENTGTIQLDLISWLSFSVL
T1 sequence (Q64537 1-270 partner): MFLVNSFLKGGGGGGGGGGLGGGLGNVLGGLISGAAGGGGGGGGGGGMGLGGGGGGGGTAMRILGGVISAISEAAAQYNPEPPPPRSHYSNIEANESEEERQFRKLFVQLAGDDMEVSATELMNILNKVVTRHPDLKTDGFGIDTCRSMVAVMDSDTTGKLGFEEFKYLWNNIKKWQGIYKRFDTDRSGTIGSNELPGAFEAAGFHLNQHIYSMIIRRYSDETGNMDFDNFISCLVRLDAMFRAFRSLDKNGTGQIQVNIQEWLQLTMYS
In words: Measurement of inhibitory activity against thiol protease (m-calpain purified from rat brain). The settings on record: m-calpain purified from a brain of rat. Format: biochemical. As for the experimental part: Measurement of Inhibitory Activity against Thiol Protease
Through the known method disclosed in Journal of Biological Chemistry, vol. 259, page 3210, 1984, m-calpain was purified from a brain of rat. The inhibitory activity against it was measured and determined according to the method disclosed in Journal of Biological Chemistry, vol. 259, page 12489, 1984.

Experiment [1] deals with microtubule-associated protein. The following applies: after the brain ischemia; cited from earlier work.
Experiment [2] relates to brain trauma models of rat. The settings on record: cited from earlier work.

A word on the IC50: it is the concentration at which inhibition is half-maximal. Read a high IC50 as a need for much substance.

Molecule `CCCC[C@H](NC(=O)COc1ccccc1)C(=O)CSCc1ccsc1` [17 (No. 86), (S)-3-phenoxyacetylamino-1-(3-thienylmethylthio)-2-heptanone] gave an IC50 on m-calpain of 12.2 µM.

Molecule `CCCC[C@H](NC(=O)COc1cccc(OC)c1)C(=O)CSCc1ccsc1` [18 (No. 87), (S)-3-(3-methoxyphenoxyacetylamino)-1-(3-thienylmethylthio)-2-heptanone] had an IC50 against m-calpain of 13 µM.

`O=C(COc1ccccc1)N[C@@H](Cc1ccccc1)C(=O)CSCc1ccco1` [38 (No. 171), (S)-1-furfurylthio-3-phenoxyacetylamino-4-phenyl-2-butanone] gave an IC50 at m-calpain of 17 µM.

`COc1cccc(OCC(=O)N[C@@H](Cc2ccccc2)C(=O)CSCc2ccsc2)c1` [58 (No. 216), (S)-3-(3-methoxyphenoxyacetylamino)-4-phenyl-1-(3-thienylmethylthio)-2-butanone] came in with an IC50 against m-calpain of 4.5 µM.

For `COc1ccc(/C=C/C(=O)N[C@@H](Cc2ccccc2)C(=O)CSCc2ccsc2)c(OC)c1` [60 (No. 219), (S)-3-(2,4-dimethoxycinnamoylamino)-4-phenyl-1-(3-thienylmethylthio)-2-butanone], the half-maximal inhibitory concentration (IC50) on m-calpain was found to be 14.5 µM. Compared with the last molecule, the IC50 is about 3.2-fold higher.

With `CC(C)CCNC(=O)[C@H](CC(C)C)NC(=O)[C@H]1O[C@@H]1C(=O)O` [E-64-C], the “degradation of microtubule-associated protein” value in experiment [1] was “inhibits the degradation of microtubule-associated protein after the brain ischemia”.

Regarding `CC(=O)N[C@@H](CC(C)C)C(=O)N[C@@H](CC(C)C)C(=O)N[C@H](C=O)CCCNC(=N)N` [leupeptin], the protection of axon result in experiment [2] is “can protect axon”.
